PubChem BioAssay AID624092 (The Scripps Research Institute Molecular Screening Center, 2012)
Active and inactive are the calls of the source.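 How the source made its calls: active means compounds blocking the TEM-1 enzyme with a half-maximal inhibitory concentration of 10 micromolar or lower; inactive means the rest.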

Target: Beta-lactamase TEM (Escherichia coli) (UniProt P62593)
Experiment: TEM-1 beta-lactamase inhibitor potency, late-stage follow-up, selectivity assay, biochemical, absorbance, probe candidates and analogs (AID 624092)
Conditions: purified TEM-1, nitrocefin hydrolysis, epi-absorbance

Sequence of Beta-lactamase TEM (Escherichia coli) (P62593 whole entry, looked up): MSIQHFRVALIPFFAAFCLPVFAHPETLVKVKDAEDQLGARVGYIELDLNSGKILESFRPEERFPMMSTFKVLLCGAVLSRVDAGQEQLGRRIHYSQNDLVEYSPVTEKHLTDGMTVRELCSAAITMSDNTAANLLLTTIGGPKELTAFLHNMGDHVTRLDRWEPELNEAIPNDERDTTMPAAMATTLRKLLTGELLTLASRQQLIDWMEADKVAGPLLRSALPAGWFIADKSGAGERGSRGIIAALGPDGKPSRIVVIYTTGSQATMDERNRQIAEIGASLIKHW

## CN1CCN(NC(=O)CN2C(=O)/C(=C/c3c(Cl)cccc3Cl)SC2=S)CC1
  IC50: > 60 µM (inactive)

## CN1CCN(NC(=O)CN2C(=O)/C(=C/c3c(Cl)ccc(Cl)c3Cl)SC2=S)CC1
  IC50: > 60 µM (inactive)
